In ChEMBL document CHEMBL1914375, “New PDE4 inhibitors based on pharmacophoric similarity between papaverine and tofisopam” (Bioorg Med Chem Lett, 2011):

Tests used:
[1] = Inhibition of bovine aortic PDE4 using cAMP as substrate in presence of cGMP; set-up: species or system Bos taurus
[2] = Competitive inhibition of bovine aortic PDE4 using cAMP as substrate by Lineweaver-Burk plot analysis; set-up: species or system Bos taurus
Endothelial cell = test: Inhibition of bovine aortic endothelial cells PDE2 using cAMP as substrate at 10 uM in presence of cGMP; assay type: cell-based; details: Bos taurus
[3] = Inhibition of bovine aortic endothelial cells PDE2 using cAMP as substrate in presence of cGMP; assay type: cell-based, Bos taurus; details: endothelial cell
[4] = target: cGMP-specific 3',5'-cyclic phosphodiesterase (Bos taurus, UniProt Q28156); test: Inhibition of bovine aortic PDE5 using cGMP as substrate in presence of EGTA
Bos taurus [5] = species on record: Bos taurus; test: Inhibition of bovine aortic PDE3 using cAMP as substrate at 10 uM in presence of rolipram
Bos taurus [6] = species on record: Bos taurus; test: Ratio of tofisopam IC50 to compound IC50 for bovine aortic PDE4 using cAMP as substrate in presence of cGMP
[7] = Inhibition of bovine aortic PDE3 using cAMP as substrate in presence of rolipram; set-up: species or system Bos taurus
Bos taurus [8] = species on record: Bos taurus; test: Inhibition of bovine aortic PDE1 using calmodulin activated cGMP as substrate at 10 uM
[9] = target: cGMP-specific 3',5'-cyclic phosphodiesterase (Bos taurus) (UniProt Q28156); test: Inhibition of bovine aortic PDE5 using cGMP as substrate at 10 uM in presence of EGTA
Bos taurus [10] = species on record: Bos taurus
Description: Activity of bovine aortic PDE4

| Compound | IC50 [1] [µM] | also measured |
| --- | --- | --- |
| CCOc1ccc(C(=O)N2CCN(Cc3ccccc3)CC2)cc1OCC | 2.3 |  |
| COc1cc2c(cc1OC)C(c1ccc3ccccc3c1)=NNC(=O)C2 | 1.5 |  |
| CCOc1ccc(C2=NN(C)C(=O)Cc3ccccc32)cc1OCC | 0.14 | Ki [2]: 0.066 µM |
| COc1cc2c(cc1OC)C(c1ccccc1)=NCC(=O)N2 | > 20 |  |
| COc1cc2c(cc1OC)C(c1cccc(Cl)c1)=NNC(=O)C2 | 7.7 |  |
| CCOc1ccc(Cc2nccc3cc(OCC)c(OCC)cc23)cc1OCC [ETHAVERINE] | 0.4 |  |
| CCOc1cc2c(cc1OCC)C(CC)C(C)=NN=C2c1cccc(Cl)c1 (stereo not drawn) | 0.39 | inhibition (Endothelial cell): 44% |
| COc1cc2c(cc1OC)N(C)C(=O)CN=C2c1ccc(Cl)cc1 | > 20 |  |
| COc1cc2c(cc1OC)C(c1cccc(Cl)c1)=NN=C(C)C2 [GIRISOPAM] | 3.2 | IC50 [3]: 4 µM; IC50 [4]: 12.5 µM; inhibition (Bos taurus [5]): 22% |
| COc1cc2c(cc1OC)N(C)C(=O)CN=C2CCc1ccccc1 | > 20 |  |
| CCOc1cc2c(cc1OCC)C(c1ccccc1)=NCC(=O)N2 | 0.95 |  |
| CCOc1cc2c(cc1OCC)C(c1cc3ccccc3s1)=NN(C)C(=O)C2 | 0.087 | Ratio IC50 (Bos taurus [6]): 7 |
| COc1cc2c(cc1OC)C(c1cc3ccccc3s1)=NN(C)C(=O)C2 | 0.3 |  |
| CCOc1ccc(C(=O)N2CCN(c3ccccc3)CC2)cc1OCC | 17 |  |
| COc1cc2c(cc1OC)N(C)C(=O)CN=C2/C=C/c1ccccc1 | 8.4 |  |
| COc1cc2c(cc1OC)N(C)C(=O)CN=C2c1cc2ccccc2s1 | 2.3 |  |
| COc1cc2c(cc1OC)C(c1cc3ccccc3s1)=NNC(=O)C2 | 1.2 |  |
| COc1cc2c(cc1OC)C(c1ccc(Cl)c(Cl)c1)=NNC(=O)C2 | 0.3 |  |
| COc1cc2c(cc1OC)N(C)C(=O)CN=C2C#Cc1ccccc1 | 1.6 |  |
| CCC1C(C)=NN=C(c2ccc(OC)c(OC)c2)c2cc(OC)c(OC)cc21 (stereo not drawn) [TOFISOPAM] | 0.68 | IC50 [3]: 0.9 µM; IC50 [7]: 5.9 µM |
| CCOc1ccc(C(=O)c2ccc(Cl)c(Cl)c2)cc1OCC | 7.9 |  |
| CCOc1ccc(C2=NNC(=O)Cc3ccccc32)cc1OCC | 0.19 | inhibition (Bos taurus [8]): 3%; inhibition (Endothelial cell): 27%; inhibition (Bos taurus [5]): 12%; inhibition [9]: 17% |

| Compound | IC50 [1] [µM] | also measured |
| --- | --- | --- |
| COc1ccc(Cc2nccc3cc(OC)c(OC)cc23)cc1OC [PAPAVERINE] | 1.1 |  |
| COc1cc2c(cc1OC)N(C)C(=O)CN=C2c1ccccc1 | 18 |  |
| CCOc1ccc(C(=O)c2ccc(Cl)cc2)cc1OCC | > 20 |  |
| COc1ccc(C(=O)N2CCCCC2)cc1OC | 9.6 |  |
| CCOc1cc2c(cc1OCC)C(c1ccccc1)=NNC(=O)C2 | 0.8 | inhibition (Bos taurus [8]): 37%; inhibition (Endothelial cell): 5%; inhibition (Bos taurus [5]): 30%; inhibition [9]: 30% |
| CCOc1cc2c(cc1OCC)C(c1ccc(Cl)cc1)=NNC(=O)C2 | 0.8 |  |
| COc1cc2c(cc1OC)N(C)C(=O)CN=C2c1cccc(Cl)c1 | > 20 |  |
| CCOc1cc2c(cc1OCC)C(CC)C(C)=NN=C2c1ccc(Cl)cc1 (stereo not drawn) | 0.2 | inhibition (Endothelial cell): 38%; inhibition (Bos taurus [5]): 4%; inhibition [9]: 39% |
| CCOc1cc2c(cc1OCC)N(C)C(=O)CN=C2c1ccccc1 | 0.86 |  |
| COc1cc2c(cc1OC)C(c1ccccc1)=NN(C)C(=O)C2 | 5.1 |  |
| COc1cc2c(cc1OC)C(c1ccccc1)=NNC(=O)C2 | 7.7 |  |
| Nc1ncnc2c1ncn2[C@@H]1O[C@@H]2COP(=O)(O)O[C@H]2[C@H]1O |  | Km (Bos taurus [10]): 0.71 µM |
| CCOc1cc2c(cc1OCC)C(c1cc3ccccc3s1)=NNC(=O)C2 | 0.26 |  |
| CCOc1cc2c(cc1OCC)C(c1cccc(Cl)c1)=NNC(=O)C2 | 1.4 |  |
| COc1cc2c(cc1OC)N(C)C(=O)CN=C2N1CCCCC1 | > 20 |  |
| CCOc1ccc(C(=O)c2ccccc2Cl)cc1OCC | 1.4 | inhibition (Bos taurus [8]): 21%; inhibition (Endothelial cell): 46%; inhibition (Bos taurus [5]): 24%; inhibition [9]: 4%; Ki [2]: 0.42 µM |
| CCOc1ccc(C(=O)c2ccccc2)cc1OCC | 2.9 |  |
| COc1cc2c(cc1OC)C(c1ccc(Cl)cc1)=NNC(=O)C2 | 1.5 |  |
| CCOc1ccc(C(=O)c2ccc(N(C)Cc3ccccc3)cc2)cc1OCC | 2.2 |  |
| CCOc1ccc(C(=O)N2CCCCC2)cc1OCC | 3.6 |  |
| CCOc1ccc(C(=O)c2cccc3ccccc23)cc1OCC | 4.3 |  |
| CCOc1ccc(C(=O)c2ccc3ccccc3c2)cc1OCC | 5 |  |
